The source of these data is paper PMC10763724 (Molecular cancer therapeutics, 2019).

Where two headings read alike, the source gives them in different places.

Assay [1] relates to total cellular ALDH activity, 1205 Lu cell lysates. The experiment in a line: Total cellular ALDH activity assay, 1205 Lu cell lysates. It is filed as biochemical, human. Conditions: 1 μmol/L, 15 minutes.
The subject of assay [2] is total cellular ALDH activity, UACC 903 cell lysates. Kind of assay: Total cellular ALDH activity assay, UACC 903 cell lysates. The class given is biochemical, human. Conditions: 1 μmol/L, 15 minutes.
Assay [3] has as its target T1, ALDH3A1 (Homo sapiens, UniProt P30838).
T1 sequence (P30838 1-453): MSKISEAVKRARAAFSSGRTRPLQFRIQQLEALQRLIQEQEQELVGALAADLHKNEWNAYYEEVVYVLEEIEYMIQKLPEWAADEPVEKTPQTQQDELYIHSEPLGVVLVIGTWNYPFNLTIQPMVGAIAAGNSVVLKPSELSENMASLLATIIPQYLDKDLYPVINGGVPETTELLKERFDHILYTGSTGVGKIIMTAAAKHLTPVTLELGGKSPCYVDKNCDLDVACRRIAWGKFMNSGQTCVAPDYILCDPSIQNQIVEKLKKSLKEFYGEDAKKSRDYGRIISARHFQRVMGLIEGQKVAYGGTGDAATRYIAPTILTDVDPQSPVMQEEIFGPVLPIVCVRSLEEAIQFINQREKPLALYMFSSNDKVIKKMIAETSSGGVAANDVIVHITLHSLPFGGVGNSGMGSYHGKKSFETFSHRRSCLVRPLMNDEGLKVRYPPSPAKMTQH
Kind of assay: ALDH3A1 isoform-specific enzyme assay. Conditions: 15 minutes preincubation. It is filed as biochemical.

The target of assay [4] is T2, ALDH1A1 (Homo sapiens, UniProt P00352).
T2 sequence (P00352 1-501): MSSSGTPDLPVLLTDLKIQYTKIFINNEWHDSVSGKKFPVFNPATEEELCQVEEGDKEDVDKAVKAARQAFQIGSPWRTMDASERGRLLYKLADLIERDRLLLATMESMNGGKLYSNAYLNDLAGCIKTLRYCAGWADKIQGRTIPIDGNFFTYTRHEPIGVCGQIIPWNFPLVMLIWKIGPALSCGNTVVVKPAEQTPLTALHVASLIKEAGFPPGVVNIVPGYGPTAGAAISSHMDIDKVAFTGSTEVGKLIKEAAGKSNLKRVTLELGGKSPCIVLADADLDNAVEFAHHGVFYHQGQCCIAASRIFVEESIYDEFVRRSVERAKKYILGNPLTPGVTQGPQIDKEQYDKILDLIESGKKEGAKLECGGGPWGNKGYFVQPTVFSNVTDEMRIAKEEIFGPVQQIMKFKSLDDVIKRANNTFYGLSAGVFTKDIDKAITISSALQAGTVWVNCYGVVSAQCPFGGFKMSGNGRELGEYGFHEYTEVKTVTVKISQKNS
The experiment in a line: ALDH1A1 isoform-specific enzyme assay. It is filed as biochemical. Conditions: 15 minutes preincubation.

Assay [5] has as its system ALDH3A1. Conditions: cited from earlier work.
Assay [6] relates to ALDH1A1. Conditions: cited from earlier work.
Assay [7] deals with T3, ALDH2 (Homo sapiens, UniProt P05091).
T3 sequence (P05091 18-517): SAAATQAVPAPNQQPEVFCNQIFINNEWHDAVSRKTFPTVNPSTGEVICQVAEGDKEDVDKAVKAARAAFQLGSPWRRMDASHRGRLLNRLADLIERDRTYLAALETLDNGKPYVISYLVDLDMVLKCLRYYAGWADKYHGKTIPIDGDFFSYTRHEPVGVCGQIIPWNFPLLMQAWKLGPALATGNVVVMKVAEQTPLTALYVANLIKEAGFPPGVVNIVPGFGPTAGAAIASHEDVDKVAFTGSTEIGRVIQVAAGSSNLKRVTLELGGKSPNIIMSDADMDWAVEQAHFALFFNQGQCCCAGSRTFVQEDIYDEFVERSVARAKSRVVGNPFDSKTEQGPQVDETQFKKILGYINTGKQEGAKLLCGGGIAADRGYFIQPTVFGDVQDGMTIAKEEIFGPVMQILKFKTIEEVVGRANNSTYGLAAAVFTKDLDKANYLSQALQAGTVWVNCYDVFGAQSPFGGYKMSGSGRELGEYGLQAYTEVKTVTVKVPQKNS
Kind of assay: ALDH2 isoform-specific enzyme assay. The class given is biochemical. Conditions: read-out: IC50s ALDH2; acetaldehyde substrate, 15 minutes preincubation.

For assay [8], the system named is UACC 903 and 1205 Lu cells. Kind of assay: Lipid peroxidation. The class given is cell-based, human. Conditions: 5 μmol/L, 24 hours.
Assay [9] has as its system UACC 903 and 1205 Lu cells. Kind of assay: ROS assay. The class given is cell-based, human. Conditions: 5 μmol/L, 24 hours.
A further assay deals with HNSCC xenograft models. Conditions: 24 mg/kg/day, implantable osmotic mini pumps; cited from earlier work.
Assay [10] has as its system ALDH2. Conditions: read-out: IC50 for ALDH2; cited from earlier work.
The test system of the next assay is UACC 903 cells. The experiment in a line: MTS cell viability assay, UACC 903. The class given is cell-based, human. Conditions: 100 μmol/L, 72 hours. For orientation: Tetrazolium dyes change colour on reduction, which living cells bring about.

As for `O=C1Nc2ccccc2C1=O` [Isatin], in [1], the “reduction of total cellular ALDH activity, 1205 Lu” value is given as “ineffective”. Further, the “reduction of total cellular ALDH activity, UACC 903” value in assay [2] is “ineffective”. Besides, the IC50 worked out at 5.05 µM against ALDH3A1 [3] (IC50s ALDH3A1, 4-nitrobenzaldehyde substrate) and 15.6 µM on ALDH1A1 [4] (IC50s ALDH1A1, propionaldehyde substrate).

For the molecule `CSC(=O)C#CC(C)(C)N(C)C` [DIMATE, 4-dimethylamino-4-methyl–pent-2-ynthioic acid-S-methylester], the IC50 in the assay on ALDH3A1 [5] (read-out: IC50 toward ALDH3A1) and in the assay with ALDH1A1 [6] (read-out: IC50 toward ALDH1A1) was 5 µM each time.

Consider `Cc1nc2ccccc2n1S(=O)(=O)c1ccc(F)cc1` [CB7], for which the IC50 at ALDH1A1 [4] (read-out: IC50s ALDH1A1, propionaldehyde substrate) was 139 µM; at ALDH2 [7] it was 144 µM.

Take `CCOC(=O)CSc1nc2c(sc3ccccc32)c(=O)n1CCCN1CCCC1` [CM037]: in [8], the “lipid peroxidation and toxic aldehyde accumulation” value was “significantly increased lipid peroxidation and toxic aldehyde accumulation”. Further, the ROS levels entry in assay [9] is “significantly increased ROS levels”.

Regarding `CN(C)CCC(=O)c1ccc(Br)cc1` [Aldi-6], in the assay with HNSCC xenograft models, the “tumor reduction in HNSCC xenograft models” value is given as 60%. The values for the IC50 in the assay on ALDH3A1 [5] (read-out: IC50 for ALDH3A1), in the assay on ALDH1A1 [6] (read-out: IC50 for ALDH1A1) and in the assay on ALDH2 [10] were 1 µM, 0.6 µM and 0.8 µM, respectively.

For `CCN(CC)c1ccc(C=O)cc1` [DEAB], in the assay with UACC 903 cells, the “reduction of UACC 903 cell survival” value amounted to 30%. Also, the IC50 at ALDH3A1 [3] (read-out: IC50s ALDH3A1, 4-nitrobenzaldehyde substrate) stood at 15.1 µM. For the same molecule, in assay [8], the “lipid peroxidation and toxic aldehyde accumulation” value is “significantly increased lipid peroxidation and toxic aldehyde accumulation”. Also, in [9], the ROS levels result is “significantly increased ROS levels”.
